Data published in US10597388B2, “Pyridazinone herbicides” (FMC CORPORATION, priority 2014, dated 2020).

Columns and labels:
Assay in all cases: Test C greenhouse herbicide test, pre- and postemergence
Type in all cases: in vivo
[1] = tested on: barnyardgrass (Echinochloa crus-galli)
Procedure, shortened: (§1)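 Two application timings: at sowing into a soil/sand blend, and on 2–18 cm seedlings in peat-vermiculite potting mix. A non-phytotoxic, surfactant-containing solvent carried the compounds. Plants were compared with controls and rated visually on 0–100 after 13–15 d.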

[2] = tested on: blackgrass (Alopecurus myosuroides)
Procedure, shortened: as §1

[3] = tested on: corn (Zea mays)
Procedure, shortened: as §1

[4] = tested on: crabgrass, large (large crabgrass, Digitaria sanguinalis)
Procedure, shortened: as §1

[5] = tested on: foxtail, giant (giant foxtail, Setaria faberii)
Procedure, shortened: as §1

[6] = tested on: galium (catchweed bedstraw, Galium aparine)
Procedure, shortened: as §1

[7] = tested on: lambsquarters (Chenopodium album)
Procedure, shortened: as §1

[8] = tested on: nutsedge, yellow (yellow nutsedge, Cyperus esculentus)
Procedure, shortened: as §1

[9] = tested on: oilseed rape (Brassica napus)
Procedure, shortened: as §1

[10] = tested on: pigweed (Amaranthus retroflexus)
Procedure, shortened: as §1

[11] = tested on: ragweed (common ragweed, Ambrosia elatior)
Procedure, shortened: as §1

[12] = tested on: ryegrass, Italian (Italian ryegrass, Lolium multiflorum)
Procedure, shortened: as §1

[13] = tested on: soybean (Glycine max)
Procedure, shortened: as §1

[14] = tested on: velvetleaf (Abutilon theophrasti)
Procedure, shortened: as §1

[15] = tested on: wheat (winter wheat, Triticum aestivum)
Procedure, shortened: as §1

[16] = Postemergence, 31 g ai/ha, 0 to 100 scale (0 no effect, 100 complete control)
[17] = Postemergence, 125 g ai/ha, scale 0 to 100, 0 is no effect, 100 is complete control
[18] = Postemergence, 250 g ai/ha, scale 0 to 100, 0 no effect, 100 complete control, 13 to 15 d
[19] = Preemergence, 31 g ai/ha, scale 0 to 100, 0 is no effect, 100 is complete control
[20] = Preemergence, 62 g ai/ha, scale 0 to 100, 0 is no effect, 100 is complete control
[21] = Preemergence, 125 g ai/ha, scale 0 to 100, 0 is no effect, 100 is complete control
[22] = Preemergence, 250 g ai/ha, scale 0 to 100, 0 no effect, 100 complete control
[23] = postemergence, 62 g ai/ha, scale 0 to 100, 0 no effect, 100 complete control

Cc1nn(C)c(=O)c(-c2ccc(F)c3ccccc23)c1O [Compound 41]
Barnyardgrass plant response rating [1, 16]: 25
Plant response rating, Barnyardgrass [1, 17]: 40
Plant response rating, Barnyardgrass [1, 18]: 60
Plant response rating, Barnyardgrass [1, 19]: 10
Plant response rating, Barnyardgrass [1, 20]: 40
Plant response rating, Barnyardgrass [1, 21]: 85
Barnyardgrass plant response rating [1, 22]: 95
Barnyardgrass plant response rating [1, 23]: 35
Blackgrass plant response rating [2, 16]: 30
Plant response rating, Blackgrass [2, 17]: 50
Plant response rating, Blackgrass [2, 18]: 60
Plant response rating, Blackgrass [2, 19]: 70
Plant response rating, Blackgrass [2, 20]: 80
Plant response rating, Blackgrass [2, 21]: 85
Blackgrass plant response rating [2, 22]: 90
Blackgrass plant response rating [2, 23]: 35
Corn plant response rating [3, 16]: 5
Plant response rating, Corn [3, 17]: 10
Plant response rating, Corn [3, 18]: 20
Plant response rating, Corn [3, 19]: 0
Plant response rating, Corn [3, 20]: 0
Plant response rating, Corn [3, 21]: 5
Corn plant response rating [3, 22]: 40
Corn plant response rating [3, 23]: 5
Crabgrass, Large plant response rating [4, 16]: 5
Plant response rating, Crabgrass, Large [4, 17]: 25
Plant response rating, Crabgrass, Large [4, 18]: 35
Plant response rating, Crabgrass, Large [4, 19]: 30
Plant response rating, Crabgrass, Large [4, 20]: 35
Plant response rating, Crabgrass, Large [4, 21]: 65
Crabgrass, Large plant response rating [4, 22]: 70
Crabgrass, Large plant response rating [4, 23]: 10
Foxtail, Giant plant response rating [5, 16]: 15
Plant response rating, Foxtail, Giant [5, 17]: 30
Plant response rating, Foxtail, Giant [5, 18]: 65
Plant response rating, Foxtail, Giant [5, 19]: 45
Plant response rating, Foxtail, Giant [5, 20]: 80
Plant response rating, Foxtail, Giant [5, 21]: 85
Foxtail, Giant plant response rating [5, 22]: 85
Foxtail, Giant plant response rating [5, 23]: 15
Galium plant response rating [6, 16]: 100
Plant response rating, Galium [6, 17]: 100
Plant response rating, Galium [6, 18]: 100
Plant response rating, Galium [6, 19]: 90
Plant response rating, Galium [6, 20]: 100
Plant response rating, Galium [6, 21]: 98
Galium plant response rating [6, 22]: 98
Galium plant response rating [6, 23]: 100
Lambsquarters plant response rating [7, 16]: 90
Plant response rating, Lambsquarters [7, 17]: 95
Plant response rating, Lambsquarters [7, 18]: 98
Plant response rating, Lambsquarters [7, 19]: 75
Plant response rating, Lambsquarters [7, 20]: 90
Plant response rating, Lambsquarters [7, 21]: 100
Lambsquarters plant response rating [7, 22]: 90
Lambsquarters plant response rating [7, 23]: 95
Nutsedge, Yellow plant response rating [8, 16]: 65
Plant response rating, Nutsedge, Yellow [8, 17]: 65
Plant response rating, Nutsedge, Yellow [8, 18]: 80
Plant response rating, Nutsedge, Yellow [8, 19]: 60
Plant response rating, Nutsedge, Yellow [8, 20]: 75
Plant response rating, Nutsedge, Yellow [8, 21]: 75
Nutsedge, Yellow plant response rating [8, 22]: 80
Nutsedge, Yellow plant response rating [8, 23]: 65
Oilseed Rape plant response rating [9, 16]: 0
Plant response rating, Oilseed Rape [9, 17]: 5
Plant response rating, Oilseed Rape [9, 18]: 0
Plant response rating, Oilseed Rape [9, 19]: 5
Plant response rating, Oilseed Rape [9, 20]: 50
Plant response rating, Oilseed Rape [9, 21]: 40
Oilseed Rape plant response rating [9, 22]: 100
Oilseed Rape plant response rating [9, 23]: 0
Pigweed plant response rating [10, 16]: 65
Plant response rating, Pigweed [10, 17]: 75
Plant response rating, Pigweed [10, 18]: 95
Plant response rating, Pigweed [10, 19]: 75
Plant response rating, Pigweed [10, 20]: 100
Plant response rating, Pigweed [10, 21]: 100
Pigweed plant response rating [10, 22]: 100
Pigweed plant response rating [10, 23]: 75
Ragweed plant response rating [11, 16]: 70
Plant response rating, Ragweed [11, 17]: 95
Plant response rating, Ragweed [11, 18]: 100
Plant response rating, Ragweed [11, 19]: 85
Plant response rating, Ragweed [11, 20]: 85
Plant response rating, Ragweed [11, 21]: 95
Ragweed plant response rating [11, 22]: 100
Ragweed plant response rating [11, 23]: 85
Ryegrass, Italian plant response rating [12, 16]: 80
Plant response rating, Ryegrass, Italian [12, 17]: 90
Plant response rating, Ryegrass, Italian [12, 18]: 90
Plant response rating, Ryegrass, Italian [12, 19]: 95
Plant response rating, Ryegrass, Italian [12, 20]: 95
Plant response rating, Ryegrass, Italian [12, 21]: 95
Ryegrass, Italian plant response rating [12, 22]: 95
Ryegrass, Italian plant response rating [12, 23]: 90
Soybean plant response rating [13, 16]: 15
Plant response rating, Soybean [13, 17]: 20
Plant response rating, Soybean [13, 18]: 15
Plant response rating, Soybean [13, 19]: 0
Plant response rating, Soybean [13, 20]: 20
Plant response rating, Soybean [13, 21]: 50
Soybean plant response rating [13, 22]: 55
Soybean plant response rating [13, 23]: 15
Velvetleaf plant response rating [14, 16]: 30
Plant response rating, Velvetleaf [14, 17]: 85
Plant response rating, Velvetleaf [14, 18]: 90
Plant response rating, Velvetleaf [14, 19]: 85
Plant response rating, Velvetleaf [14, 20]: 90
Plant response rating, Velvetleaf [14, 21]: 95
Velvetleaf plant response rating [14, 22]: 98
Velvetleaf plant response rating [14, 23]: 65
Wheat plant response rating [15, 16]: 10
Plant response rating, Wheat [15, 17]: 30
Plant response rating, Wheat [15, 18]: 5
Plant response rating, Wheat [15, 19]: 0
Plant response rating, Wheat [15, 20]: 5
Plant response rating, Wheat [15, 21]: 50
Wheat plant response rating [15, 22]: 65
Wheat plant response rating [15, 23]: 0
